Experimental data reported in ChEMBL document CHEMBL5360622, “Leucettinibs, a Class of DYRK/CLK Kinase Inhibitors Inspired by the Marine Sponge Natural Product Leucettamine B” (J Med Chem, 2023).

How the values were obtained:
[1] = biological target: Dual specificity protein kinase CLK2 (Homo sapiens, UniProt P49760)
[2] = biological target: Dual specificity protein kinase CLK4 (Homo sapiens, UniProt Q9HAZ1)
[3] = biological target: Glycogen synthase kinase-3 beta (Homo sapiens, UniProt P49841); format: cell-based, Sf9
Glycogen synthase kinase-3 beta, sequence (P49841 whole entry): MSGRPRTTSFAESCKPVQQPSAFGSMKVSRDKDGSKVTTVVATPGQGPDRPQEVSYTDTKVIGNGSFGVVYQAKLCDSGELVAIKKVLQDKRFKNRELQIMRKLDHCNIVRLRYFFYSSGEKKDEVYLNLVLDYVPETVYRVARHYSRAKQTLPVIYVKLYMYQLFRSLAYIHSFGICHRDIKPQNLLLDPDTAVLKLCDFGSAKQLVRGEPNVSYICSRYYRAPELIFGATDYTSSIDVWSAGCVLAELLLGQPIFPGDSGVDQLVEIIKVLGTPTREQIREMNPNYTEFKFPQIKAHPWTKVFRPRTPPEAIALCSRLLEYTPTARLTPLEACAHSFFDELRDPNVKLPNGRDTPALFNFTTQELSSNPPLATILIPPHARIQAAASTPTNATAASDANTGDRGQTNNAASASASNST

[4] = biological target: Dual specificity protein kinase CLK1 (Homo sapiens, UniProt P49759); format: cell-based, Sf9
Dual specificity protein kinase CLK1, sequence (P49759 whole entry): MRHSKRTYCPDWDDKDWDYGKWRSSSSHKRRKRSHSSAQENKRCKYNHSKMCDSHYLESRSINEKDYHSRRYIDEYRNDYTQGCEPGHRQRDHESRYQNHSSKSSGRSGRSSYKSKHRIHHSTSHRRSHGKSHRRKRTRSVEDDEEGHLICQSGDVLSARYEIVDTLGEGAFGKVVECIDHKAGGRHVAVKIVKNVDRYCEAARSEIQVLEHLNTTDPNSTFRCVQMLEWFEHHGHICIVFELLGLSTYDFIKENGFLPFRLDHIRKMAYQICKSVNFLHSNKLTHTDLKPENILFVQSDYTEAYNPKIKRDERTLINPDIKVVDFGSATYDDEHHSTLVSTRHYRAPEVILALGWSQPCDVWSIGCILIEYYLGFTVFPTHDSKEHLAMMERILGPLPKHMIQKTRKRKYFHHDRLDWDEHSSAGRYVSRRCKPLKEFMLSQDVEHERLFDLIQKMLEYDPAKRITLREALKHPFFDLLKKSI

[5] = biological target: T1, Dual specificity tyrosine-phosphorylation-regulated kinase 4 (Homo sapiens, UniProt Q9NR20)
T1 sequence (Q9NR20 whole entry): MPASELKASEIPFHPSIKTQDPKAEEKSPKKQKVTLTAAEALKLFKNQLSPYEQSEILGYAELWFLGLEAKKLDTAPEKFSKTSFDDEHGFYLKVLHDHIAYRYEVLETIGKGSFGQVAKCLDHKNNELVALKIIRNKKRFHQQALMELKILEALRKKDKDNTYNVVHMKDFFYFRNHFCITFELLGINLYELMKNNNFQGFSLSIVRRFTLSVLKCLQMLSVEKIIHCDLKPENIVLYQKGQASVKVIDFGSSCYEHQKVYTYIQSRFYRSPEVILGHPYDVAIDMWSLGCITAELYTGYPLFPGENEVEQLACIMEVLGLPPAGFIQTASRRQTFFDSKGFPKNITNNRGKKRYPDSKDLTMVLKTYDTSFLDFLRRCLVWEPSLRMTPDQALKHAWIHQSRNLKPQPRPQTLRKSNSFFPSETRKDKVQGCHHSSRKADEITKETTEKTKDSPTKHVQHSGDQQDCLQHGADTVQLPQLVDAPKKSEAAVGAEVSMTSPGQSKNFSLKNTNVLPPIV

[6] = biological target: Dual specificity tyrosine-phosphorylation-regulated kinase 1A (Homo sapiens, UniProt Q13627)
[7] = biological target: T2, Dual specificity tyrosine-phosphorylation-regulated kinase 2 (Homo sapiens, UniProt Q92630)
T2 sequence (Q92630 whole entry): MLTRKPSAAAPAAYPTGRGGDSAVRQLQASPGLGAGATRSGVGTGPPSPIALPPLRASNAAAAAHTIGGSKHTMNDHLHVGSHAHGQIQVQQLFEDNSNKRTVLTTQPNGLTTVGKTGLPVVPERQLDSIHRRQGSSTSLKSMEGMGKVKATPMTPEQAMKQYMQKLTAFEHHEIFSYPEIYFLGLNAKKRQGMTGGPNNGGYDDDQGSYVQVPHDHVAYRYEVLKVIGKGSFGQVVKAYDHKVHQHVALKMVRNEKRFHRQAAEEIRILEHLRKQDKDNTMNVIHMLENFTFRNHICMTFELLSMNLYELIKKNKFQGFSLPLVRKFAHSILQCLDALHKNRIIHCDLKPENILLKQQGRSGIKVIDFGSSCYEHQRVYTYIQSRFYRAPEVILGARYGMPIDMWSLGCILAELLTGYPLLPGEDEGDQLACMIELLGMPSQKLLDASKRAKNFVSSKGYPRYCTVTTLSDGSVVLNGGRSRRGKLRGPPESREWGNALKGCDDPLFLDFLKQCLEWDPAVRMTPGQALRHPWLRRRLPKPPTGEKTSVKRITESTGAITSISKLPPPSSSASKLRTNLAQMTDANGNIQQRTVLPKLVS

[8] = biological target: Cyclin-dependent kinase 5/CDK5 activator 1 (Homo sapiens, UniProt Q00535); format: cell-based, Sf9
Cyclin-dependent kinase 5/CDK5 activator 1, sequence (Q00535 whole entry): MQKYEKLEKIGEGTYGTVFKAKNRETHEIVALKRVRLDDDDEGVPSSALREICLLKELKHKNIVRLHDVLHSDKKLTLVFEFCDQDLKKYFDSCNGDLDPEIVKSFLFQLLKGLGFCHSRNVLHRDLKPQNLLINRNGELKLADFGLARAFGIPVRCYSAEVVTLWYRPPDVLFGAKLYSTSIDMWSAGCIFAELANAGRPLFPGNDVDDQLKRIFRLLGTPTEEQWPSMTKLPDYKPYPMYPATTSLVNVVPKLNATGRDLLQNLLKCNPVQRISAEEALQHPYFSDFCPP
Cyclin-dependent kinase 5/CDK5 activator 1, sequence (Q15078 whole entry, further chain): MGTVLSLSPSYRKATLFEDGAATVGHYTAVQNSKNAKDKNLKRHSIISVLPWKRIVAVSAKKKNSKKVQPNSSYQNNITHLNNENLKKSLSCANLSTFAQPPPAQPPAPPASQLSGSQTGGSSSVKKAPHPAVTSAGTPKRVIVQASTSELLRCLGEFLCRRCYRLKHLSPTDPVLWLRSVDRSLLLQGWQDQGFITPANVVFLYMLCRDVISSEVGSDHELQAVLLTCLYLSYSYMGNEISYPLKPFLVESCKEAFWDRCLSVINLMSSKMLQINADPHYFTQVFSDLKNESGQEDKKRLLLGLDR

[9] = biological target: Dual specificity protein kinase CLK3 (Homo sapiens, UniProt P49761); format: cell-based, Sf9
Dual specificity protein kinase CLK3, sequence (P49761 whole entry, canonical isoform): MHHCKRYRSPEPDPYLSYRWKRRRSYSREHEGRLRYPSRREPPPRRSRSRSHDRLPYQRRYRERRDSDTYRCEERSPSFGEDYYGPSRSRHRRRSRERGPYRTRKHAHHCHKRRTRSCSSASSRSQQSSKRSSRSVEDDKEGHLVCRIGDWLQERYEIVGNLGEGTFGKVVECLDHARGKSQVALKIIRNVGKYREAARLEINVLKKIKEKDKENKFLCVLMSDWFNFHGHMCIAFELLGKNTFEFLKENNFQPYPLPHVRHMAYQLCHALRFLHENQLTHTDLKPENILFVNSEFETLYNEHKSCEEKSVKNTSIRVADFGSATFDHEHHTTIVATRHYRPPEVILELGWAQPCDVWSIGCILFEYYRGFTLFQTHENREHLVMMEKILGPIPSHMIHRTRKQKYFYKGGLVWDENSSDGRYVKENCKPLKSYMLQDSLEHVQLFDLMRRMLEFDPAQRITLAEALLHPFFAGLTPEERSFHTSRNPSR

[10] = biological target: Casein kinase I isoform epsilon (Homo sapiens, UniProt P49674)
Casein kinase I isoform epsilon, sequence (P49674 whole entry, canonical isoform): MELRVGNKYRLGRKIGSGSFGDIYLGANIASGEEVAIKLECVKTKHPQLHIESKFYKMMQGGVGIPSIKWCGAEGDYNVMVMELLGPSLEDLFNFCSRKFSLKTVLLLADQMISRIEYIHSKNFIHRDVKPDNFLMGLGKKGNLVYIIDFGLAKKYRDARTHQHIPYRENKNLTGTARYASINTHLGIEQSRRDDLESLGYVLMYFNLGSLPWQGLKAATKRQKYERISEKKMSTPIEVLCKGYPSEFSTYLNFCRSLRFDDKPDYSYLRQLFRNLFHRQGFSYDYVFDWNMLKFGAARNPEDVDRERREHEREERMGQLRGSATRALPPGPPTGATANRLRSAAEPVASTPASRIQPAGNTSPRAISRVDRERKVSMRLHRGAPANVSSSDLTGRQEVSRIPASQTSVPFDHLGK

[11] = biological target: T3, Dual specificity tyrosine-phosphorylation-regulated kinase 3 (Homo sapiens, UniProt O43781)
T3 sequence (O43781 whole entry): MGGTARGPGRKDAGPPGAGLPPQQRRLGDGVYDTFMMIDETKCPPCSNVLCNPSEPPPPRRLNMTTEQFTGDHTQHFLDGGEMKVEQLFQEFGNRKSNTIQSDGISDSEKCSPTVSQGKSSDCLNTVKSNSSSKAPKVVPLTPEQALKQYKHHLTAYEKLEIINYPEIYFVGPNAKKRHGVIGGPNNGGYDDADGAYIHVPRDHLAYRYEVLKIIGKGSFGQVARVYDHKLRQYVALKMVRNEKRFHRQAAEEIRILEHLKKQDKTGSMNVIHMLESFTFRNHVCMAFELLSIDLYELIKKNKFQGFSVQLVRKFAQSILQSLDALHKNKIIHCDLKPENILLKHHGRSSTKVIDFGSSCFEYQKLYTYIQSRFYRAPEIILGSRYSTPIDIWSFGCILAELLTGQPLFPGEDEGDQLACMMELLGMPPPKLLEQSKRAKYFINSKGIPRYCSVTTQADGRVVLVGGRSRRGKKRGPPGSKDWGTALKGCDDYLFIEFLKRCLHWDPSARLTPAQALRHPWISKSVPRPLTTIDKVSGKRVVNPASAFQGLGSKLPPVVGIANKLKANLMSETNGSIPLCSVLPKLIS

Dual specificity protein kinase CLK4, sequence (Q9HAZ1 whole entry): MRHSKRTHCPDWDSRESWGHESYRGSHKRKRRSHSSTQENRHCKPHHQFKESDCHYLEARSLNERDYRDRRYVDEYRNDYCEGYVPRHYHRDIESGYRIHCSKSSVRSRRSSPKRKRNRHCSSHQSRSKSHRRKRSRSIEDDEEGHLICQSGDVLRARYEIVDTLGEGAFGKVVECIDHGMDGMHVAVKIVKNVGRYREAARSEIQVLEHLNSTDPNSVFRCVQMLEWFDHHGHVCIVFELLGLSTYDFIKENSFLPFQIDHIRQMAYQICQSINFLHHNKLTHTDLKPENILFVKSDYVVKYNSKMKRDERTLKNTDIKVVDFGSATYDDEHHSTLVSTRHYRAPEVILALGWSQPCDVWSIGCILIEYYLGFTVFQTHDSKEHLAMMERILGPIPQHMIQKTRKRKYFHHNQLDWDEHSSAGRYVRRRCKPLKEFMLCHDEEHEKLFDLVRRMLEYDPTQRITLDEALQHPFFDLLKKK
Dual specificity protein kinase CLK2, sequence (P49760 whole entry): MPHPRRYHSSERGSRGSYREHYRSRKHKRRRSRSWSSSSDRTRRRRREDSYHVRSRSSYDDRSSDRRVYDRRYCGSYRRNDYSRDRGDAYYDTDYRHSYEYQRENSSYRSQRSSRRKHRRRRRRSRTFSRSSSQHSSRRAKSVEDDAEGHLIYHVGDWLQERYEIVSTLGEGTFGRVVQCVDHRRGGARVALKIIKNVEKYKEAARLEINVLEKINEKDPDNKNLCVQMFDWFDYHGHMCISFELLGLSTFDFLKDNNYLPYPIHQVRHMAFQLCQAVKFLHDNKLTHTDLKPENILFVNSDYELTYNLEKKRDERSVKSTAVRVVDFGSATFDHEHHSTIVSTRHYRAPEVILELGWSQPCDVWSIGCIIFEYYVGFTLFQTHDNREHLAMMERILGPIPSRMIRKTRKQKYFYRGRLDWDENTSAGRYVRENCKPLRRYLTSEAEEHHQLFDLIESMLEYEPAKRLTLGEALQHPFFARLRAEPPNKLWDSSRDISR

IC50 [1] | IC50 [2] | IC50 [3] | IC50 [4] | IC50 [5] | IC50 [6] | IC50 [7] | IC50 [8] | IC50 [9] | IC50 [10] | IC50 [11] | Compound
7.77 µM | 0.649 µM | > 10 µM | 2.51 µM | > 10 µM | 0.141 µM | 2.54 µM | > 10 µM | 1.71 µM | > 10 µM |  | Cn1ncc2cc(/C=C3\N=C(NC4CCCCC4)NC3=O)ccc21
2.18 µM | 0.055 µM | > 10 µM | 0.067 µM | 3.02 µM |  | 1.5 µM | > 10 µM | 1.41 µM | > 10 µM | 1.03 µM | Cn1cc2cc(/C=C3\N=C(NC4CCCCCC4)NC3=O)ccc2n1
4 µM | 0.125 µM | > 10 µM | 0.142 µM | 1.63 µM |  | 0.363 µM | > 10 µM | 2.22 µM | > 10 µM | 0.307 µM | Cn1ncc2cc(/C=C3\N=C(NC45CC6CC(CC(C6)C4)C5)NC3=O)ccc21
 | 0.008 µM | > 10 µM | 0.02 µM | 1.11 µM | 0.093 µM | 1.47 µM | > 10 µM | 1.08 µM |  |  | Cn1cnc2ccc(/C=C3\N=C(NC4CCCCC4)NC3=O)cc21
0.017 µM | 0.066 µM | > 10 µM | 0.102 µM | 0.626 µM | 0.05 µM | 1.63 µM | > 10 µM | > 10 µM | > 10 µM |  | O=C1NC(NC23CC4CC(CC(C4)C2)C3)=N/C1=C\c1ccc2c(c1)CCO2
0.096 µM | 0.004 µM | > 10 µM | 0.017 µM | 1.64 µM | 0.002 µM | 0.183 µM | > 10 µM | > 10 µM | > 10 µM |  | O=C1NC(NC23CC4CC(CC(C4)C2)C3)=N/C1=C\c1ccc2c(c1)OCO2
0.102 µM |  | > 10 µM | 0.017 µM | 1.04 µM | 0.067 µM | 1.49 µM | 8.7 µM | 0.804 µM | > 10 µM | 0.758 µM | Cn1cnc2ccc(/C=C3\N=C(NC4CCCCCC4)NC3=O)cc21
0.002 µM | 0.002 µM | > 10 µM | 0.005 µM | 0.218 µM | 0.002 µM | 0.051 µM | > 10 µM | 7.57 µM |  |  | O=C1NC(NC23CC4CC(CC(C4)C2)C3)=N/C1=C\c1ccc2[nH]cnc2c1
 |  | > 10 µM | 0.004 µM | 4.3 µM | 0.002 µM |  | > 10 µM | > 10 µM | > 10 µM | 0.04 µM | Cn1cc2cc(/C=C3\N=C(NC45CC6CC(CC(C6)C4)C5)NC3=O)ccc2n1
6.33 µM |  | > 10 µM | 0.951 µM | > 10 µM | 0.57 µM | 3.7 µM | > 10 µM | 4.53 µM | > 10 µM | 4.13 µM | Cn1cc2cc(/C=C3\N=C(NC4CCCCC4)NC3=O)ccc2n1

Second part, the molecule before the results:

Compound | IC50 [1] | IC50 [2] | IC50 [3] | IC50 [4] | IC50 [5] | IC50 [6] | IC50 [7] | IC50 [8] | IC50 [9] | IC50 [10] | IC50 [11]
O=C1NC(NCc2ccccc2OC(F)(F)F)=N/C1=C\c1ccc2ncsc2c1 | 0.124 µM | 0.037 µM | > 10 µM | 0.034 µM | > 10 µM |  | > 10 µM | > 10 µM | 2.87 µM |  | > 10 µM
CN1CCN(c2ccc(NC3=N/C(=C\c4ccc5c(c4)OCO5)C(=O)N3)cc2)CC1 | 0.035 µM | 0.016 µM | 1.2 µM | 0.023 µM |  |  |  |  | 0.8 µM |  | 0.12 µM
O=C1NC(NC2CCCCC2)=N/C1=C\c1ccc2[nH]ncc2c1 | 2.35 µM |  | > 10 µM | 0.541 µM | > 10 µM | 0.263 µM |  | > 10 µM | 0.794 µM | > 10 µM | 
O=C1NC(NC2CCCCC2)=N/C1=C\c1ccc2ncsc2c1 |  | 0.012 µM | 7.06 µM | 0.021 µM | 0.663 µM |  | 0.627 µM | 6.71 µM | 0.787 µM | 9.75 µM | 0.482 µM
O=C1NC(NC2CCCCCC2)=N/C1=C\c1ccc2[nH]cnc2c1 | 0.507 µM | 0.008 µM | > 10 µM | 0.031 µM | 0.865 µM | 0.098 µM | 2.19 µM | > 10 µM | 1.55 µM |  | 
O=C1NC(NC2CCCCCC2)=N/C1=C\c1ccc2c(c1)CCO2 | 1.46 µM | 0.009 µM | > 10 µM | 0.024 µM | 4.89 µM |  | > 10 µM | > 10 µM | > 10 µM | > 10 µM | 4.17 µM
O=C1NC(NC2CCCCCC2)=N/C1=C\c1ccc2[nH]ncc2c1 | 0.725 µM | 0.112 µM | 3.95 µM | 0.139 µM |  | 0.033 µM | 1.87 µM | > 10 µM | 0.266 µM | > 10 µM | 
CC(C)C[C@H](COCc1ccccc1)NC1=N/C(=C\c2ccc3ncsc3c2)C(=O)N1 | 2.23 µM | 0.086 µM | 5.19 µM | 0.22 µM | 2.67 µM |  | 0.946 µM | > 10 µM | 5.7 µM | > 10 µM | 5.43 µM
COC(=O)[C@@H](NC1=N/C(=C\c2ccc3ncsc3c2)C(=O)N1)C(C)O (stereo not given in full) | 0.02 µM | 0.003 µM | 6.03 µM |  | 0.699 µM | 0.003 µM | 0.513 µM | > 10 µM | 0.92 µM | > 10 µM | 0.302 µM
O=C1NC(NC2CCCCC2)=N/C1=C\c1ccc2nnsc2c1 | 5.58 µM | 0.392 µM | > 10 µM | 0.852 µM | > 10 µM |  | > 10 µM | > 10 µM | 8.82 µM |  | > 10 µM
O=C1NC(Nc2ccccc2)=N/C1=C\c1ccc2ncsc2c1 | 0.113 µM | 0.005 µM | 2.22 µM | 0.013 µM |  |  |  | > 10 µM | 0.698 µM | > 10 µM | 0.71 µM
O=C1NC(NC2CCCCC2)=N/C1=C\c1ccc2[nH]cnc2c1 | 1.37 µM | 0.037 µM | > 10 µM | 0.883 µM | 1.86 µM |  | 3.28 µM | > 10 µM | 1.91 µM | > 10 µM | 
O=C1NC(NC2CCCCCC2)=N/C1=C\c1ccc2scnc2c1 | > 10 µM | 8.17 µM | > 10 µM | > 10 µM |  |  | > 10 µM | > 10 µM | > 10 µM | > 10 µM | > 10 µM
